In brackets after ≈: the same amount, converted by molar mass. Entries after “also recorded” stand apart in the source; their conditions may differ. Like-named read-outs stand apart in the source and are kept apart here.
Assays:
HM = HM MTT assay; type: cell-based; settings: Table II, Minimum Effective Concentration
Xenopus tadpole = settings: stage 59-60, 10 μg/ml; for pharmacological response in tadpole: in words
[1] = test system: chick embryo vitelline capillaries; assay: Chick embryo vitelline capillary regression assay; type: in vivo; parameters: key to vascular reactivity (capillary regression): +: Vascular reactivity; 0: No vascular reactivity; +/-: Equivocal reactivity; settings: for Chick embryo diss. assay, Minimum Effective Concentration: Table II; for vascular reactivity (capillary regression): 60 min
Procedure, shortened: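 Each compound was applied onto 3-day chick embryos in 0.1 ml 15% Ficol 400 in PBS. Regression of vitelline capillaries was scored visually after 60 minutes.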

Chemical stability = type: physicochemical
S. aureus = assay: Antibiotic activity (MIC); type: cell-based; settings: Staphylococcus aureus
B16 melanoma = B16 melanoma growth in C57B mice; type: in vivo, mouse; settings: squalamine 5 mg/kg/day; compound 1436 10 mg/kg/every 3 days
Experimental: The growth of B16 melanoma in C57B mice is dependent upon neovascularization.
Using the growth of B16 melanoma cells in C57B mice, a recognized model for the evaluation of inhibitors of angiogenesis on the growth of cancers, the effects of subcutaneous, intraperitoneal and oral administration of squalamine were evaluated.
In this model, there was observed little evidence of metastasis with or without treatment with chemotherapeutic agents.
Based on the idea that tumor growth involves both the clonal expansion of a malignant cell along with the development of a supporting vascular supply, a combination of compound 1436 with squalamine was tested to determine whether it would achieve a synergistic effect on solid tumor growth. This concept was evaluated in the B16 melanoma model.
Animals were implanted with B16 melanoma followed by treatment with compound 1436 or 1256 administered in a combined schedule or separately. […] Thus, a combination of these two compounds achieves a therapeutic benefit in tumors dependent on neovascularization that may prevent metastatic spread.

[2] = Hematological profile in L1210-inoculated mice; settings: L1210 mice; cisplatin 8 mg/kg ip or compound 1436 10 mg/kg ip q4d
From the text: C57B mice were inoculated with L1210 lymphoblastic leukemia cells at an inoculum that causes leukemia in 100% of animals.

[3] = test system: PHA-stimulated human lymphocytes; assay: Inhibition of mitogen (PHA)-stimulated growth of human T-cells; type: cell-based; settings: in words; 10 μg/ml
From the text: Results are tabulated below.

[4] = Arterial resistance / pressure in the rat; type: in vivo; settings: 30 minutes; noradrenaline 40 μg
Experimental: A 200-g rat was catheterized in the right carotid artery, and the compound was introduced over a ten-second period to a total dosage of 5 mg/kg.
At that time, 40 μg of noradrenaline was introduced.

[5] = test system: malignant tumors, endothelial cells and vascular smooth muscle cells; assay: Inhibition of growth of a spectrum of cells; type: cell-based; settings: in words
From the text: (§1) As set forth in Table 7 below, all malignant tumors evaluated in tissue culture, endothelial cells and vascular smooth muscle cells were sensitive to inhibition. Thus, compound 1436 has application in the control of growth factor dependent proliferation of many types of tissue.

[6] = Growth and weight gain in mice; type: in vivo, mouse (C57B)
Experimental: Animals were dosed QTD (i.p.) starting on Day 1. […] Animals receiving 5 mg/kg QTD experienced about a 50% reduction in growth, compared to untreated controls, while animals receiving 1 mg/kg QTD were affected by about 10%. […] They appeared very much like hypophysectamized animals might appear.

[7] = Fasting blood glucose in mice; type: in vivo, mouse (male CD-1); settings: i.v.; in words
Experimental: To study the effect of steroid administrator or the NHE responsible for secretion of insulin, several of the aminosterols from shark liver were administered to fasting mice. Male CD-1 mice were assigned to one of four treatment groups. Whole blood glucose was tested using glucometer (Lifescan Glucometer II and One Touch test strips). Statistical analysis was via one-way analysis of variance (ANOVA) followed by subsequent Bonferonni's t-test.

rabbit NHE3 = rabbit NHE3 (Oryctolagus cuniculus, UniProt P26432); settings: 10 μg/ml, acid preloaded
Chain of rabbit NHE3 (P26432 30-832): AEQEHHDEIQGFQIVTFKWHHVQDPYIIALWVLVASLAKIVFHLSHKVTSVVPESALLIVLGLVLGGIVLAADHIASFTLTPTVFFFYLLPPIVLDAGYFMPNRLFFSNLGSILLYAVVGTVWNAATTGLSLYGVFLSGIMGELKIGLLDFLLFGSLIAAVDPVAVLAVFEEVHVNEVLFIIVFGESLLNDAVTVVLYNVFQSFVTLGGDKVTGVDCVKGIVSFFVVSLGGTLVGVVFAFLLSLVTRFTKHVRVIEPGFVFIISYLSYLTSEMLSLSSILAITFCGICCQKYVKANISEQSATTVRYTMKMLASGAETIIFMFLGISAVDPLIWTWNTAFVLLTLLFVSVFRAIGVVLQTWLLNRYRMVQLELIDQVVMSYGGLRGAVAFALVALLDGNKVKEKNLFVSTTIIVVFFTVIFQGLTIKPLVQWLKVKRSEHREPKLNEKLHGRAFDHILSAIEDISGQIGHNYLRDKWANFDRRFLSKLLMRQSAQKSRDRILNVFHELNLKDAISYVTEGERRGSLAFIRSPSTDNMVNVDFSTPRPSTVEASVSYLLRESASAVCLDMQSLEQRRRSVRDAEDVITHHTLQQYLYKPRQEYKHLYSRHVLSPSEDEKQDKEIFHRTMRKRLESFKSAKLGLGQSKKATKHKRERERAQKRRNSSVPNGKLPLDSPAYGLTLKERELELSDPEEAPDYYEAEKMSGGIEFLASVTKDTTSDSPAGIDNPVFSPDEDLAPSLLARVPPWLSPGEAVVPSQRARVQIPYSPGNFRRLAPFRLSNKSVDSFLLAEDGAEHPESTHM
Experimental: For cells not acid-preloaded, the actual internal pH value was monitored as a function of time following addition of squalamine, with the results depicted in FIG. 1B.
PS120 fibroblasts transfected with rabbit NHE3 were grown and acid preloaded by exposure to 40 mM NH4 C1 as described above in conjunction with FIGS. 1A and 1B. Internal cellular pH changes expressed as the rate of pH recovery as a function of restored extracellular sodium ion concentration following exposure to 10 μg/ml of the compound were assayed with the fluorescent dye BCECF-AM as described above.

[8] = test system: human coronary artery smooth muscle; assay: Proliferation of human coronary artery smooth muscle in vitro; type: cell-based; settings: in words (1436: about 11 μg/ml)
From the text: Aminosterols of the invention may also have utility in inhibiting the growth factor mediated proliferation of smooth muscle within the artery. Following coronary angioplasty, reocclusion commonly occurs, secondary to reparative proliferation of the vascular smooth muscle within the wall of the surgically manipulated blood vessel. This process generally takes place over the course of 7-10 days. To evaluate whether an agent could prevent the growth factor mediated proliferation of smooth muscle within the artery, compound 1436 was evaluated in vitro for its effect on the proliferation of human coronary artery smooth muscle. Results for compound 1436 are shown in FIG. 13, and those for squalamine are shown in FIG. 14, with FIG. 15 being a composite logarithmic plot.

Xenopus laevis heart = assay: Isolated frog heart beating ex vivo; settings: 10 μg/ml, room temperature; about one hour without compound
Experimental: To determine if compound 1436 has such utility, the following experiment was performed. The heart of a juvenile Xenopus laevis frog was dissected from the living animal. The heart was placed into a Petri dish containing Krebs-Ringer buffer with adrenaline 50 μg/ml, and examined with the naked eye. At room temperature, the heart continued beating in a coordinated fashion (atrial beat followed by ventricular beat) for about one hour. In the presence of 10 μg/ml of compound 1436, spontaneous beating persisted up to 24 hours.

HIV = assay: Inhibition of HIV replication (P-24 Elisa); type: cell-based; settings: 7 days
[9] = test system: bovine pulmonary endothelial cells; assay: Growth inhibition in vitro; type: cell-based; settings: 10 μg/ml
From the text: as §1

Lewis lung carcinoma = assay: Growth inhibition in vitro; type: cell-based; settings: 10 μg/ml
From the text: as §1

Human melanoma WM 1617 = assay: Growth inhibition in vitro; type: cell-based; settings: 10 μg/ml
From the text: as §1

Murine L1210 leukemia = assay: Growth inhibition in vitro; type: cell-based; settings: 10 μg/ml
From the text: as §1

[10] = test system: Human coronary artery smooth muscle cells; assay: Growth inhibition in vitro; type: cell-based; settings: 10 μg/ml
From the text: as §1

[11] = test system: Human colon carcinoma SW948; assay: Growth inhibition in vitro; type: cell-based; settings: 10 μg/ml
From the text: as §1

[12] = test system: Human ovarian carcinoma SKOV3; assay: Growth inhibition in vitro; type: cell-based; settings: 10 μg/ml
From the text: as §1

[13] = test system: Human microvascular endothelial cells; assay: Growth inhibition in vitro; type: cell-based; settings: 10 μg/ml
From the text: as §1

[14] = test system: human umbilical venous endothelial cells; assay: Growth inhibition in vitro; type: cell-based; settings: 10 μg/ml
From the text: as §1

[15] = test system: Human colon carcinoma HT29; assay: Growth inhibition in vitro; type: cell-based; settings: 10 μg/ml
From the text: as §1

Murine B16 melanoma = assay: Growth inhibition in vitro; type: cell-based; settings: 10 μg/ml
From the text: as §1

## CC(C)CCC[C@@H](C)[C@H]1CC[C@H]2[C@@H]3[C@H](O)C[C@H]4C[C@H](NCCCNCCCCN)CC[C@]4(C)[C@H]3CC[C@]12C [Compound 370]
HM
  minimal effective concentration: 40 µg/mL
Xenopus tadpole
  pharmacological response in tadpole: pharmacologic activity similar to that seen for FX 3
[1]
  Chick embryo diss. assay, Minimum Effective Concentration: > 10 µg

## CC(CCC(=O)C(C)(C)OS(=O)(=O)O)[C@H]1CCC2C3C(CC[C@@]21C)[C@@]1(C)CC[C@H](NCCCNCCCCN)C[C@@H]1C[C@H]3O (stereo partly drawn) [FX 1A]
Chemical stability
  stability in water: undergo conversion to another molecule (FX 1B) rapidly in water

## CC(COS(=O)(=O)O)C(=O)CC[C@@H](C)[C@H]1CC[C@H]2[C@@H]3[C@H](O)C[C@H]4C[C@@H](NCCCNCCCCN)CC[C@]4(C)[C@H]3CC[C@]12C (stereo partly drawn)
S. aureus
  MIC: 8 µg/mL (≈ 12.5 µM)

## CC(C)[C@@H](CC[C@@H](C)[C@H]1CC[C@H]2[C@@H]3[C@H](O)C[C@H]4C[C@@H](NCCCNCCCCNCCCN)CC[C@]4(C)[C@H]3CC[C@]12C)OS(=O)(=O)O [Compound 1436]
B16 melanoma
  effect on B16 tumor volume, single agent and combination: no significant impact on tumor volume
[2]
  RBC, Early Time: 4.8 10^6 /mm^3
  RBC, Late Time: 8.8 10^6 /mm^3
  WBC, Early Time: 3.3 10^3 /mm^3
  WBC, Late Time: 3.7 10^3 /mm^3
[3]
  inhibition of blast transformation: inhibited blast transformation most potently
[4]
  duration / reversibility of arterial effect: followed for 30 minutes, without significant change; also recorded: readily reversible by standard pharmacological practice
[5]
  growth inhibition of a broad spectrum of cells: inhibit the growth of a very broad spectrum of cells
[6]; 1 mg/kg QTD i.p.
  effect on growth of mice: about 10%
[6]; 5 mg/kg QTD i.p.
  reduction in growth of mice: ~50%
[6]; 10 mg/kg QTD i.p., about 1 month
  growth suppression in mice: almost completely inhibited
[6]; QTD i.p.
  clinical health of treated mice: all were active, normally proportioned, not-cachectic, and in excellent apparent clinical health
[6]; in words, QTD i.p.
  suppression of growth and weight gain: suppresses both linear growth and weight gain in growing mice in a dose-dependent fashion; also recorded: suppresses the growth of mice in a dose-dependent fashion
[7]
  hyperglycemia: caused hyperglycemia in mice
Xenopus tadpole
  time to death: about 2 hours
  pharmacological response in tadpole: Gradual reduction in overall activity. Heart beat remained strong, suggesting nervous system depression. Melanocytes over head and tail began to swell, first exhibiting visibly distinct nuclei, followed by rupture into fragments.
[1]; 0.001 μg applied
  vascular reactivity (capillary regression): +/-
[1]; 0.01 μg applied
  vascular reactivity (capillary regression): +
[1]; 0.1 μg applied
  vascular reactivity (capillary regression): +
[1]; 1 μg applied
  vascular reactivity (capillary regression): +
[1]; 10 μg applied
  vascular reactivity (capillary regression): +
[1]
  Chick embryo diss. assay, Minimum Effective Concentration: 1 µg
[1]; in words
  effect on chick embryo vessels / blood: causes vitelline capillary regression with about the same potency as squalamine
Rabbit NHE3
  inhibition of rabbit NHE3: inhibit rabbit NHE3
Rabbit NHE3; listed as compound 1436
  inhibition of rabbit NHE3: inhibitor of NHE3
[8]
  growth suppression / viability of smooth muscle cells: maintained in a quiescent state in the presence of this steroid at about 11 μg/ml without loss of viability; also recorded: suppress in vitro the growth of human coronary artery smooth muscle
Xenopus laevis heart
  persistence of spontaneous beating: up to 24 hours
HIV; 0.5 μM
  P-24 Elisa: 40561
HIV; 1 μM
  P-24 Elisa: 7464
HIV; 5 μM
  P-24 Elisa: 3426
HIV; 10 μM
  P-24 Elisa: 421
HIV; 20 μM
  P-24 Elisa: 9
[9]
  growth inhibition in vitro: INHIBITED
Lewis lung carcinoma
  growth inhibition in vitro: INHIBITED
Human melanoma WM 1617
  growth inhibition in vitro: INHIBITED
Murine L1210 leukemia
  growth inhibition in vitro: INHIBITED
[10]
  growth inhibition in vitro: INHIBITED
[11]
  growth inhibition in vitro: INHIBITED
[12]
  growth inhibition in vitro: INHIBITED
[13]
  growth inhibition in vitro: INHIBITED
[14]
  growth inhibition in vitro: INHIBITED
[15]
  growth inhibition in vitro: INHIBITED
Murine B16 melanoma
  growth inhibition in vitro: INHIBITED
